In series [1] the test system is Salmonella typhimurium TA98, TA102. Kind of series: Ames test for genotoxicity. Particulars: 8 conc., 1.5-5000 μg/plate; +/− S9 both; strains TA98, TA102. On the procedure:
The Ames test determines the ability of a compound to reverse an introduced mutation in two strains of Salmonella typhimurium (selected from TA98, TA100, TA15345, TA1537, and TA102). (See for example Maron, D. M. and Ames, B. N., Mutat. Res., 1983, 113, 173-215.) Compounds were tested at eight dose levels 1.5, 5, 15, 50, 150, 500, 1500, and 5000 μg/plate in both the presence and absence of S-9 microsomal fraction in two bacterial strains (TA98, TA102). After incubation at 37° the number of revertant colonies was compared with the number of spontaneous revertants on negative (vehicle) plates. Positive control plates containing a known mutagen active in each of the strains in the presence of S-9 extract (2-aminoanthracene at 1-5 ug/plate) were also run.

The test system of series [2] is MDR1-MDCK cell monolayers that express the multidrug transporter P-gp. Kind of series: In vitro cell permeability assay to predict brain penetration potential. Set-up: key: High: when Papp A−B≧3.0×10−6 cm/s, and efflux<3.0; Moderate: when Papp A−B≧3.0×10−6 cm/s, and 10>efflux≧3.0; Low: when either Papp A−B≧3.0×10−6 cm/s, and efflux≧10, or when Papp A−B<3.0×10−6 cm/s. The format is in vitro ADME. The note with it: 5 μM, pH 7.4, 2 hr, from Papp A-B and efflux ratio. On the procedure: Penetration Classification (Table 24) using the in vitro cell permeability assay to predict bran penetration potential: Transwell® wells containing MDR1-MDCK cell monolayers that express the multidrug transporter P-gp were used for measuring the percent recovery of compound after dosing both sides of a cell monolayer with the test article. Monolayers were grown for 7-11 days at which time 5 μM of the test article was made by dilution from DMSO stocks into a Hank's balanced salt solution (pH 7.4), final DMSO not greater than 1%, and added to: a) the apical side for A-B permeability (apical to basal) assessment, or separately b) the basal side for the B-A permeability (basal to apical) assessment, all at pH 7.4. After a 2 hr incubation (37° C.) both the apical and the basal compartments were sampled and the amount of test article present determined by generic LC-MS/MS methods against a ≧4 point calibration curve. Experiments were done in duplicate. Apparent permeability (Papp units are reported×10−6 cm/s) are determined for the A−B and the B−A directions as well as the Efflux ratio (PappB−A/Papp A−B). The blood-brain barrier penetration potential is classified as follows: “High” when Papp A−B≧3.0×10−6 cm/s, and efflux<3.0; “Moderate” when Papp A−B≧3.0×10−6 cm/s, and 10>efflux≧3.0; and “Low” when either Papp A−B≧3.0×10−6 cm/s, and efflux≧10, or when Papp A−B<3.0×10−6 cm/s.

Series [3] is described as follows: Brain exposure (brain:plasma ratio, Table 24). Format: in vivo, Rats. Particulars: for Kp at 15 min: 15 m. As for the experimental part: Animals were fasted overnight prior to dose administration and food returned to the animals two hours after dosing. Following IV dosing, blood samples (ca 200 μL) were collected into separate tubes containing anticoagulant (K-EDTA) via the orbital plexus at various times post administration. Plasma samples were prepared immediately after collection by centrifugation for ten minutes using a tabletop centrifuge, and stored at −80° C. Brain tissue was weighed, homogenized on ice in 50 mM phosphate buffer (2 ml per brain) and the homogenate stored at −80° C. Plasma and brain homogenate samples were extracted by the addition of 5 volumes of cold acetonitrile, mixed well by vortexing and centrifuged at 4000 rpm for 15 minutes. The supernatant fractions were analyzed by LC-MS/MS operating in multiple reaction monitoring mode (MRM). The amount of parent compound in each sample was calculated by comparing the response of the analyte in the sample to that of a standard curve.

Where [4] appears, read: rat, brain and plasma, iv, 3 mg/kg, 3 MPK i.v., 30 m, read-out: RATIO: Brain:plasma (Direct).
Setting [5] is: rat, brain and plasma, iv, 3 mg/kg, 3 MPK i.v., 1 hr, read-out: RATIO: Brain:plasma (Direct).
[6] abbreviates: rat, brain and plasma, iv, 3 mg/kg, 3 MPK i.v., avg, read-out: RATIO: Brain:plasma (Direct).

Each structure is given as a SMILES string. Like-named read-outs stand apart in the source and are kept apart here.

For `O=c1[nH]c2ccc(OC[C@@H](O)CN3CCN(c4ccc(Cl)cc4)CC3)cc2[nH]1` [NP10122], the “Genotoxicity (Ames) Result” value in series [1] is “No positive”.

As to `Oc1ccc(OC[C@@H](O)CN2CCN(c3ccc(Cl)cc3)CC2)cc1` [drawing 800], the “BBB Pene Classification” value in series [2] is “High (when Papp A−B≧3.0×10−6 cm/s, and efflux<3.0)”. For the same molecule, in series [3] (setting [4]), the Kp at 30 min came out at 11. Besides, the Kp at 1 h in series [3] (setting [5]) was 9.5. For the same molecule, the Kp in series [3] (setting [6]) came to 10.2.

Consider `O=C(COc1ccc2[nH]c(=O)oc2c1)N1CCN(c2ccc(Cl)c(Cl)c2)CC1` [drawing 806], for which the “BBB Pene Classification” value in series [2] was “Moderate (when Papp A−B≧3.0×10−6 cm/s, and 10>efflux≧3.0)”. In addition, the Kp at 15 min in series [3] (rat, brain and plasma, ip, 10 mg/kg, 10 MPK i.p., read-out: RATIO: Brain:plasma (Direct)) came to 0.25. Also, the Kp at 30 min in series [3] (rat, brain and plasma, ip, 10 mg/kg, 10 MPK i.p., 30 m, read-out: RATIO: Brain:plasma (Direct)) worked out at 0.49. Moreover, the Kp at 1 h in series [3] (rat, brain and plasma, ip, 10 mg/kg, 10 MPK i.p., 1 hr, read-out: RATIO: Brain:plasma (Direct)) worked out at 0.3. Moreover, the Kp at 2 h in series [3] (rat, brain and plasma, ip, 10 mg/kg, 10 MPK i.p., 2 hr, read-out: RATIO: Brain:plasma (Direct)) is 0.36. For the same molecule, the Kp in series [3] (rat, brain and plasma, ip, 10 mg/kg, 10 MPK i.p., avg, read-out: RATIO: Brain:plasma (Direct)) turned out to be 0.33.

As to `Nc1ccc(OC[C@@H](O)CN2CCN(c3ccc(Cl)c(Cl)c3)C2=O)cc1` [NP10226], the “Genotoxicity (Ames) Result” value in series [1] is “No positive”.

On to `CS(=O)(=O)Nc1ccc(OC[C@@H](O)CN2CCN(c3ccc(F)c(F)c3)CC2)cc1` [drawing 802], for which the “BBB Pene Classification” value in series [2] was “Moderate (when Papp A−B≧3.0×10−6 cm/s, and 10>efflux≧3.0)”. In addition, in series [3] (rat, brain and plasma, ip, 60 mg/kg, 60 MPK, i.p., 30 m, read-out: RATIO: Brain:plasma (Direct)), the Kp at 30 min worked out at 0.7. Also, the Kp at 2 h in series [3] (rat, brain and plasma, ip, 60 mg/kg, 60 MPK, i.p., 2 hr, read-out: RATIO: Brain:plasma (Direct)) is 0.7. Also, in series [3] (rat, brain and plasma, ip, 60 mg/kg, 60 MPK, i.p., 4 hr, read-out: RATIO: Brain:plasma (Direct)), the Kp at 4 h came out at 0.9. Further, the Kp in series [3] (rat, brain and plasma, ip, 60 mg/kg, 60 MPK, i.p., avg, read-out: RATIO: Brain:plasma (Direct)) was found to be 0.77.

For `O=C(COc1ccc2[nH]c(=O)[nH]c2c1)N1CCN(c2ccc(Cl)c(Cl)c2)CC1` [drawing 807], the “BBB Pene Classification” value in series [2] is “Moderate (when Papp A−B≧3.0×10−6 cm/s, and 10>efflux≧3.0)”. Also, in series [3] (rat, brain and plasma, iv, 1 mg/kg i.v., read-out: RATIO: Brain:plasma (Direct)), the Kp at 15 min was 0.04. The Kp at 30 min in series [3] (rat, brain and plasma, iv, 1 mg/kg i.v., 30 m, read-out: RATIO: Brain:plasma (Direct)) is 0.06. The Kp at 1 h in series [3] (rat, brain and plasma, iv, 1 mg/kg i.v., 1 hr, read-out: RATIO: Brain:plasma (Direct)) came out at 0.07. In addition, in series [3] (rat, brain and plasma, iv, 1 mg/kg i.v., 3 hr, read-out: RATIO: Brain:plasma (Direct)), the Kp at 3 h is 0.1. The Kp in series [3] (rat, brain and plasma, iv, 1 mg/kg i.v., avg., read-out: RATIO: Brain:plasma (Direct)) worked out at 0.07.

`Oc1ccc(OC[C@@H](O)CSc2nc3cc(Cl)c(Cl)cc3[nH]2)cc1` [drawing 808]: the “BBB Pene Classification” value in series [2] is “High (when Papp A−B≧3.0×10−6 cm/s, and efflux<3.0)”. The “RATIO: Brain:plasma (Direct)” value in series [3] (3 MPK i.v., 2 hr) is on record as “BLQ”. Also, in series [3] (setting [4]), the Kp at 30 min worked out at 0.15. In addition, in series [3] (setting [5]), the Kp at 1 h stood at 0.35. The Kp in series [3] (setting [6]) amounted to 0.25.

Regarding `O=c1[nH]c2ccc(OC[C@@H](O)CN3CCN(c4ccc(Cl)cc4)CC3)cc2o1` [NP10056], the “Genotoxicity (Ames) Result” value in series [1] is reported as “No positive”.

As for `NC(=O)Nc1ccc(OC[C@@H](O)CN2CCN(c3ccc(Cl)cc3)C2=O)cc1` [drawing 805], in series [2], the “BBB Pene Classification” value was “Low”. In series [3] (1 MPK i.v.), the “RATIO: Brain:plasma (Direct)” value is “Below Detection limit (~0)”.

With `O=c1[nH]c2ccc(OC[C@@H](O)CSc3nc4cc(Cl)c(Cl)cc4[nH]3)cc2o1` [drawing 809], in series [2], the “BBB Pene Classification” value was “Moderate (when Papp A−B≧3.0×10−6 cm/s, and 10>efflux≧3.0)”. Also, the “RATIO: Brain:plasma (Direct)” value in series [3] (3 MPK i.v., 30 m) is on record as “BLQ (avg); BLQ (30 m), BLQ (1 hr),”; in series [3] (3 MPK i.v., 1 hr), “BLQ (avg); BLQ (30 m), BLQ (1 hr),”; in series [3] (3 MPK i.v., avg), “BLQ (avg); BLQ (30 m), BLQ (1 hr),”.

Consider `O=C1N(C[C@H](O)COc2ccc(O)cc2)CCN1c1ccc(Cl)cc1` [drawing 804], for which, in series [2], the “BBB Pene Classification” value was “High (when Papp A−B≧3.0×10−6 cm/s, and efflux<3.0)”. Moreover, the Kp at 30 min in series [3] (setting [4]) worked out at 0.68. In series [3] (setting [5]), the Kp at 1 h came to 0.49. In addition, the Kp in series [3] (setting [6]) amounted to 0.59.

Regarding `Cc1ccc(N2CCN(C[C@H](O)COc3ccc4[nH]c(=O)oc4c3)CC2)cc1` [drawing 801], the “BBB Pene Classification” value in series [2] is “Moderate (when Papp A−B≧3.0×10−6 cm/s, and 10>efflux≧3.0)”. For the same molecule, the Kp at 30 min in series [3] (setting [4]) came to 2.3. Besides, the Kp at 1 h in series [3] (setting [5]) stood at 2.9. The Kp at 2 h in series [3] (rat, brain and plasma, iv, 3 mg/kg, 3 MPK i.v., 2 hr, read-out: RATIO: Brain:plasma (Direct)) was determined as 1.7. In addition, in series [3] (setting [6]), the Kp amounted to 2.3.

As for `CCCCN(CCc1ccc(Cl)c(Cl)c1)CC(O)COc1ccc(NS(C)(=O)=O)cc1` (stereo not drawn) [Compound 93-31], the “Genotoxicity (Ames) Result” value in series [1] is recorded as “No positive”.

`NC(=O)Nc1ccc(OC[C@@H](O)CN2CCN(c3ccc(Cl)cc3)CC2)cc1` [drawing 803]: the “BBB Pene Classification” value in series [2] is “Low”. Moreover, the Kp at 30 min in series [3] (rat, brain and plasma, iv, 1 mg/kg, 1MPK i.v., 30 m, read-out: RATIO: Brain:plasma (Direct)) stood at 0.24. Moreover, the Kp at 6 h in series [3] (rat, brain and plasma, iv, 3 mg/kg, 3 MPK i.v., 6 hr, read-out: RATIO: Brain:plasma (Direct)) was 0.49. In addition, the Kp at 1 hr in series [3] (rat, brain and plasma, iv, 3 MPK i.v. @ 6 hr, 1MPK @ 0.5 hr and 2 hr, 1 hr, read-out: RATIO: Brain:plasma (Direct)) worked out at 0.53. Also, the Kp in series [3] (rat, brain and plasma, iv, 3 MPK i.v. @ 6 hr, 1MPK @ 0.5 hr and 2 hr, avg, read-out: RATIO: Brain:plasma (Direct)) is 0.42.

`Nc1ccc(OC[C@@H](O)CN2CCN(c3ccc(Cl)cc3)CC2)cc1` [NP10231]: in series [1], the “Genotoxicity (Ames) Result” value was “No positive”.

Values taken from US20110160223A1, “NMDA Receptor Antagonists for the Treatment of Neuropsychiatric Disorders” (priority 2008, published 2011).
